For this test, the target named is T1, human GLP-1 receptor (Homo sapiens, UniProt P43220).
T1 construct: expressed in transfected cells; host or cells: membranes of BHK cells (parent BHKTS13), clone FCW467-12A
Description: Assay (II)(a) GLP-1 receptor binding, 125I-GLP-1 displacement SPA on BHK membranes. The following applies: without presence of serum albumin; read-out: GLP-1R IC50 (nM) [Assay (II)(a)]. The method in brief:
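Membranes from BHK cells (clone FCW467-12A) stably expressing human GLP-1R were incubated with serially diluted compounds (8×10EE-13 to 8×10EE-7 M before addition) and [125I]-GLP-1-(7-36)NH2 with WGA SPA beads, 2 h at 30° C, pH 7.4. IC50 taken from displacement by non-linear regression. Run at ≤0.001% or 2.0% final serum albumin.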

Starred links: 1 amine or outer side, 2 acyl side, 3 side chain; linkers in the order of their positions; H or OH if unused. Non-standard residues stand in square brackets, D forms with d. Residues, ends and D or L forms follow the SMILES beside them. Groups on a side chain read outwards from the residue. *: point of attachment. C18 diacid = O=C(O)CCCCCCCCCCCCCCCCC(=O)*; γGlu = O=C(O)[C@H](CCC(=O)[*:2])N[*:1]; AEEA = NCCOCCOCC(=O)O; Aib = CC(C)(N)C(=O)O

The term IC50 denotes the point on the concentration scale where inhibition reaches its midpoint.

T1 sequence (P43220 24-463): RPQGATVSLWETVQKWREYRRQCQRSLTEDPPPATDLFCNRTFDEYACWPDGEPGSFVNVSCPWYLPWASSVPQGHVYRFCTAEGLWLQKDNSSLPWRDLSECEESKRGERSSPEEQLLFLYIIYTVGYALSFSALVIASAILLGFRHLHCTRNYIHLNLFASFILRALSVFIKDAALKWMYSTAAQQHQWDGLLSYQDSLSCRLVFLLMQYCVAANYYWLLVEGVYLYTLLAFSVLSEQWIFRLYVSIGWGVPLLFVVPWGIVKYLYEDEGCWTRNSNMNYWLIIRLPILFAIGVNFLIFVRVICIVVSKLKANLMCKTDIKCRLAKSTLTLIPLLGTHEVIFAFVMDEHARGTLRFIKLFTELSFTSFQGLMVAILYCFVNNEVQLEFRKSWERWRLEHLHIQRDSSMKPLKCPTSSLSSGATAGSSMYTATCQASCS

Turning to `CC[C@H](C)[C@H](NC(=O)[C@H](CC(C)C)NC(=O)[C@H](Cc1c[nH]c2ccccc12)NC(=O)[C@H](CCCCNC(=O)COCCOCCNC(=O)COCCOCCNC(=O)CC[C@H](NC(=O)CC[C@H](NC(=O)CC[C@H](NC(=O)CCCCCCCCCCCCCCCCC(=O)O)C(=O)O)C(=O)O)C(=O)O)NC(=O)[C@@H](NC(=O)[C@H](Cc1ccccc1)NC(=O)[C@H](CCC(=O)O)NC(=O)[C@H](CCCNC(=N)N)NC(=O)[C@H](C)NC(=O)[C@H](CCCNC(=N)N)NC(=O)[C@H](CCCNC(=N)N)NC(=O)[C@H](C)NC(=O)[C@H](CC(=O)O)NC(=O)[C@H](CC(C)C)NC(=O)[C@H](Cc1ccc(O)cc1)NC(=O)[C@H](CCCCN)NC(=O)[C@H](CO)NC(=O)[C@H](Cc1ccc(O)cc1)NC(=O)[C@H](CC(=O)O)NC(=O)[C@H](CO)NC(=O)[C@@H](NC(=O)[C@H](Cc1ccccc1)NC(=O)[C@@H](NC(=O)CNC(=O)[C@H](CCC(N)=O)NC(=O)C(C)(C)NC(=O)[C@@H](N)Cc1c[nH]cn1)[C@@H](C)O)[C@@H](C)O)C(C)C)C(=O)N[C@@H](CO)C(=O)N[C@H](C(N)=O)[C@@H](C)O` [Chem. 4, N^ε24-[2-[2-[2-[[2-[2-[2-[[(4S)-4-carboxy-4-[[(4S)-4-carboxy-4-[[(4S)-4-carboxy-4-(17-carboxyheptadecanoylamino)butanoyl]amino]butanoyl]amino]butanoyl]amino]ethoxy]ethoxy]acetyl]amino]ethoxy]ethoxy]acetyl]-[Aib2,Ala16,Arg20,Glu21,Lys24,Ile27,Ser28]-Glucagon amide] (H-H[Aib]QGTFTSDYSKYLDARRAREFVK([AEEA-AEEA-γGlu-γGlu-γGlu-C18 diacid])WLIST-NH2; N-terminus assumed), the IC50 turned out to be 0.1 nM.
As for `CC[C@H](C)[C@H](NC(=O)[C@H](CC(C)C)NC(=O)[C@H](Cc1c[nH]c2ccccc12)NC(=O)[C@H](CCC(N)=O)NC(=O)[C@@H](NC(=O)[C@H](Cc1ccccc1)NC(=O)[C@H](CC(=O)O)NC(=O)[C@H](CCC(N)=O)NC(=O)[C@H](C)NC(=O)[C@H](CCCNC(=N)N)NC(=O)[C@H](CCCNC(=N)N)NC(=O)[C@H](C)NC(=O)[C@H](CC(=O)O)NC(=O)[C@H](CC(C)C)NC(=O)[C@H](Cc1ccc(O)cc1)NC(=O)[C@H](CCCCN)NC(=O)[C@H](CO)NC(=O)[C@H](CC(C)C)NC(=O)[C@H](CC(=O)O)NC(=O)[C@H](CO)NC(=O)[C@@H](NC(=O)[C@H](Cc1ccccc1)NC(=O)[C@@H](NC(=O)CNC(=O)[C@H](CCC(N)=O)NC(=O)C(C)(C)NC(=O)[C@@H](N)Cc1c[nH]cn1)[C@@H](C)O)[C@@H](C)O)C(C)C)C(=O)N[C@@H](CCCCNC(=O)COCCOCCNC(=O)COCCOCCNC(=O)CC[C@H](NC(=O)CC[C@H](NC(=O)CC[C@H](NC(=O)CCCCCCCCCCCCCCCCC(=O)O)C(=O)O)C(=O)O)C(=O)O)C(=O)N[C@H](C(N)=O)[C@@H](C)O` [Chem. 7, N^ε28-[2-[2-[2-[[2-[2-[2-[[(4S)-4-carboxy-4-[[(4S)-4-carboxy-4-[[(4S)-4-carboxy-4-(17-carboxyheptadecanoylamino)butanoyl]amino]butanoyl]amino]butanoyl]amino]ethoxy]ethoxy]acetyl]amino]ethoxy]ethoxy]acetyl]-[Aib2,Leu10,Ala16,Ile27,Lys28]-Glucagon amide] (H-H[Aib]QGTFTSDLSKYLDARRAQDFVQWLIK([AEEA-AEEA-γGlu-γGlu-γGlu-C18 diacid])T-NH2; N-terminus assumed), the IC50 amounted to 0.3 nM.
